Test results reported in PubChem BioAssay AID2060887 (Molecular Pharmacology Branch, DTP, NCI, 2025).
pIC50: −log10 of the molar value. “And” between values parts separate entries of the source, which are not always exact repeats. Equal entries are not always repeated.

Test system: 782815-120-R-J1-PDC complex spheroid viability
Test: Anticancer human tumor 782815-120-R-J1-PDC patient-derived colon adenocarcinoma cell line growth inhibition [RAS]
Settings: for viability, T/C: stronger effect = lower value
Outline: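 Tumour cells grown as complex spheroids with HUVEC endothelial cells and mesenchymal stem cells, treated with RAS pathway inhibitor combinations. Each agent spans half-log steps from near clinical Cmax, or 10 microM where Cmax is unknown.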
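Note: spheroids exposed to compounds for 7 days before reading.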
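Throughout, for viability, T/C: 100% = DMSO vehicle control viability.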

**Q.** Which results are given for `CC1(C)CCC(Nc2ncc(C(F)(F)F)c(-c3c[nH]c4c(P(C)(C)=O)c(C#N)ccc34)n2)CN1` (centres undefined)?
**A.** viability, T/C (compound 0.000949 µM): 107% [middle of 4 runs]; viability, T/C (compound 0.003 µM): 85% [middle of 4 runs]; viability, T/C (compound 0.03 µM): 65.3% [middle of 4 runs]; viability, T/C (compound 0.0949 µM): 59.4% [middle of 4 runs]; viability, T/C (compound 0.3 µM): 57.8% [middle of 4 runs]; pIC50 (curve of compound): < 6.52 and 7.12 and 6.65

**Q.** `CCC(CC)c1cc(NC2CCC(N)C2)n2nccc2n1` (centres undefined) was tested. Which viability, T/C (compound 0.0316 µM) did it give?
**A.** 103% [middle of 4 runs]

**Q.** And the viability, T/C (compound 0.1 µM)?
**A.** 93.2% [middle of 4 runs]

**Q.** What about the viability, T/C (compound 0.316 µM) of the same compound?
**A.** 103% [middle of 4 runs]

**Q.** What about the viability, T/C (compound 1 µM) of the same compound?
**A.** 99.6% [middle of 4 runs]

**Q.** What about the viability, T/C (compound 3.16 µM) of the same compound?
**A.** 34.1% [middle of 4 runs]

**Q.** And the viability, T/C (compound 10 µM)?
**A.** 1.98% [middle of 4 runs]

**Q.** And the IC50 (curve of compound)?
**A.** 2.34 µM [middle of 4 runs]

**Q.** How did the pIC50 (curve of first compound, second compound 0.000949 µM) turn out when `CC(=O)OC12COC1CC(O)C1(C)C(=O)C(O)C3=C(C)C(OC(=O)C(O)C(NC(=O)OC(C)(C)C)c4ccccc4)CC(O)(C(OC(=O)c4ccccc4)C21)C3(C)C` (centres undefined) + CCn1c(-c2cccnc2C(C)OC)c2c3cc(ccc31)N1CCOC(CC(NC(=O)C(C(C)C)N(C)C(=O)C3(F)CCN(C(=O)C#CC(C)(C)N(C)C)CC3)C(=O)N3CCCC(N3)C(=O)OCC(C)(C)C2)C1 was run?
**A.** > 7.50

**Q.** What about the pIC50 (curve of first compound, second compound 0.003 µM) of the same compound?
**A.** > 7.50

**Q.** What about the pIC50 (curve of first compound, second compound 0.00949 µM) of the same compound?
**A.** > 7.50

**Q.** What about the pIC50 (curve of first compound, second compound 0.03 µM) of the same compound?
**A.** > 7.50

**Q.** And the pIC50 (curve of first compound, second compound 0.0949 µM)?
**A.** > 7.50

**Q.** And the pIC50 (curve of first compound, second compound 0.3 µM)?
**A.** > 7.50

**Q.** What about the viability, T/C (second compound 0.000949 µM, first compound 0.0316 µM) of the same compound?
**A.** 31.7%

**Q.** What about the viability, T/C (second compound 0.000949 µM, first compound 0.1 µM) of the same compound?
**A.** 27.2%

**Q.** What about the viability, T/C (second compound 0.000949 µM, first compound 0.316 µM) of the same compound?
**A.** 28.5%

**Q.** And the viability, T/C (second compound 0.000949 µM, first compound 1 µM)?
**A.** 30.2%

**Q.** And the viability, T/C (second compound 0.000949 µM, first compound 3.16 µM)?
**A.** 27.4%

**Q.** What about the viability, T/C (second compound 0.000949 µM, first compound 10 µM) of the same compound?
**A.** 32.5%

**Q.** What about the viability, T/C (second compound 0.003 µM, first compound 0.0316 µM) of the same compound?
**A.** 33.1%

**Q.** What about the viability, T/C (second compound 0.003 µM, first compound 0.1 µM) of the same compound?
**A.** 26.5%

**Q.** What about the viability, T/C (second compound 0.003 µM, first compound 0.316 µM) of the same compound?
**A.** 28.2%

**Q.** And the viability, T/C (second compound 0.003 µM, first compound 1 µM)?
**A.** 32.6%

**Q.** What about the viability, T/C (second compound 0.003 µM, first compound 3.16 µM) of the same compound?
**A.** 27.9%

**Q.** And the viability, T/C (second compound 0.003 µM, first compound 10 µM)?
**A.** 30.2%

**Q.** And the viability, T/C (second compound 0.00949 µM, first compound 0.0316 µM)?
**A.** 29%

**Q.** And the viability, T/C (second compound 0.00949 µM, first compound 0.1 µM)?
**A.** 29.7%

**Q.** And the viability, T/C (second compound 0.00949 µM, first compound 0.316 µM)?
**A.** 29.9%

**Q.** What about the viability, T/C (second compound 0.00949 µM, first compound 1 µM) of the same compound?
**A.** 32.5%

**Q.** What about the viability, T/C (second compound 0.00949 µM, first compound 3.16 µM) of the same compound?
**A.** 26.1%

**Q.** What about the viability, T/C (second compound 0.00949 µM, first compound 10 µM) of the same compound?
**A.** 28.2%

**Q.** And the viability, T/C (second compound 0.03 µM, first compound 0.0316 µM)?
**A.** 34.2%

**Q.** What about the viability, T/C (second compound 0.03 µM, first compound 0.1 µM) of the same compound?
**A.** 29.4%

**Q.** And the viability, T/C (second compound 0.03 µM, first compound 0.316 µM)?
**A.** 24%

**Q.** What about the viability, T/C (second compound 0.03 µM, first compound 1 µM) of the same compound?
**A.** 27.7%

**Q.** What about the viability, T/C (second compound 0.03 µM, first compound 3.16 µM) of the same compound?
**A.** 29.5%

**Q.** What about the viability, T/C (second compound 0.03 µM, first compound 10 µM) of the same compound?
**A.** 27.7%

**Q.** What about the viability, T/C (second compound 0.0949 µM, first compound 0.0316 µM) of the same compound?
**A.** 28.6%

**Q.** And the viability, T/C (second compound 0.0949 µM, first compound 0.1 µM)?
**A.** 29.9%

**Q.** What about the viability, T/C (second compound 0.0949 µM, first compound 0.316 µM) of the same compound?
**A.** 25.7%

**Q.** What about the viability, T/C (second compound 0.0949 µM, first compound 1 µM) of the same compound?
**A.** 31.2%

**Q.** What about the viability, T/C (second compound 0.0949 µM, first compound 3.16 µM) of the same compound?
**A.** 26%

**Q.** And the viability, T/C (second compound 0.0949 µM, first compound 10 µM)?
**A.** 26.7%

**Q.** What about the viability, T/C (second compound 0.3 µM, first compound 0.0316 µM) of the same compound?
**A.** 22.7%

**Q.** And the viability, T/C (second compound 0.3 µM, first compound 0.1 µM)?
**A.** 27.9%

**Q.** What about the viability, T/C (second compound 0.3 µM, first compound 0.316 µM) of the same compound?
**A.** 23.3%

**Q.** And the viability, T/C (second compound 0.3 µM, first compound 1 µM)?
**A.** 21.9%

**Q.** What about the viability, T/C (second compound 0.3 µM, first compound 3.16 µM) of the same compound?
**A.** 25.2%

**Q.** What about the viability, T/C (second compound 0.3 µM, first compound 10 µM) of the same compound?
**A.** 24.4%

**Q.** How did the viability, T/C (compound 0.000316 µM) turn out when `CC(C)n1nc(-c2ccc3oc(N)nc3c2)c2c(N)ncnc21` was run?
**A.** 98.8% [middle of 4 runs]

**Q.** What about the viability, T/C (compound 0.001 µM) of the same compound?
**A.** 97.7% [middle of 4 runs]

**Q.** What about the viability, T/C (compound 0.00316 µM) of the same compound?
**A.** 93.8% [middle of 4 runs]

**Q.** And the viability, T/C (compound 0.01 µM)?
**A.** 90.3% [middle of 4 runs]

**Q.** And the viability, T/C (compound 0.0316 µM)?
**A.** 95.5% [middle of 4 runs]

**Q.** What about the viability, T/C (compound 0.1 µM) of the same compound?
**A.** 83.7% [middle of 4 runs]

**Q.** And the pIC50 (curve of compound)?
**A.** < 7.00

**Q.** What does the source list for `O=C(c1ccc(F)c(F)c1Nc1ccc(I)cc1F)N1CC(O)([C@@H]2CCCCN2)C1` + C=CC(=O)N1CCN(c2nc(OCC3CCCN3C)nc3c(F)c(-c4nc(N)cc(C)c4C(F)(F)F)c(Cl)cc23)C(C)C1?
**A.** pIC50 (curve of first compound, second compound 0.00316 µM): 7.13; pIC50 (curve of first compound, second compound 0.01 µM): 7.17; pIC50 (curve of first compound, second compound 0.0316 µM): 7.17; pIC50 (curve of first compound, second compound 0.1 µM): 7.00; pIC50 (curve of first compound, second compound 0.316 µM): 7.08; pIC50 (curve of first compound, second compound 1 µM): 7.09; viability, T/C (second compound 0.00316 µM, first compound 0.00316 µM): 91.2%; viability, T/C (second compound 0.00316 µM, first compound 0.01 µM): 87.7%; viability, T/C (second compound 0.00316 µM, first compound 0.0316 µM): 64.6%; viability, T/C (second compound 0.00316 µM, first compound 0.1 µM): 44.3%; viability, T/C (second compound 0.00316 µM, first compound 0.316 µM): 21.8%; viability, T/C (second compound 0.00316 µM, first compound 1 µM): 3.64%; viability, T/C (second compound 0.01 µM, first compound 0.00316 µM): 93.1%; viability, T/C (second compound 0.01 µM, first compound 0.01 µM): 86.5%; viability, T/C (second compound 0.01 µM, first compound 0.0316 µM): 64.6%; viability, T/C (second compound 0.01 µM, first compound 0.1 µM): 40.9%; viability, T/C (second compound 0.01 µM, first compound 0.316 µM): 21.7%; viability, T/C (second compound 0.01 µM, first compound 1 µM): 4.13%; viability, T/C (second compound 0.0316 µM, first compound 0.00316 µM): 99.3%; viability, T/C (second compound 0.0316 µM, first compound 0.01 µM): 79.5%; viability, T/C (second compound 0.0316 µM, first compound 0.0316 µM): 64.2%; viability, T/C (second compound 0.0316 µM, first compound 0.1 µM): 46.3%; viability, T/C (second compound 0.0316 µM, first compound 0.316 µM): 19%; viability, T/C (second compound 0.0316 µM, first compound 1 µM): 4.19%; viability, T/C (second compound 0.1 µM, first compound 0.00316 µM): 84.1%; viability, T/C (second compound 0.1 µM, first compound 0.01 µM): 90.1%; viability, T/C (second compound 0.1 µM, first compound 0.0316 µM): 68.3%; viability, T/C (second compound 0.1 µM, first compound 0.1 µM): 52.4%; viability, T/C (second compound 0.1 µM, first compound 0.316 µM): 20.7%; viability, T/C (second compound 0.1 µM, first compound 1 µM): 4.3%; viability, T/C (second compound 0.316 µM, first compound 0.00316 µM): 90.5%; viability, T/C (second compound 0.316 µM, first compound 0.01 µM): 88.5%; viability, T/C (second compound 0.316 µM, first compound 0.0316 µM): 66.2%; viability, T/C (second compound 0.316 µM, first compound 0.1 µM): 47.7%; viability, T/C (second compound 0.316 µM, first compound 0.316 µM): 22%; viability, T/C (second compound 0.316 µM, first compound 1 µM): 4.23%; viability, T/C (second compound 1 µM, first compound 0.00316 µM): 88.9%; viability, T/C (second compound 1 µM, first compound 0.01 µM): 93.5%; viability, T/C (second compound 1 µM, first compound 0.0316 µM): 66.1%; viability, T/C (second compound 1 µM, first compound 0.1 µM): 45.5%; viability, T/C (second compound 1 µM, first compound 0.316 µM): 23.1%; viability, T/C (second compound 1 µM, first compound 1 µM): 4.2%
